Measurements: patent publication EP0414688B1, “PROCESS FOR REGULATING THE ABSORPTION RATE OF DRUGS AND A PHARMACEUTICAL FORMULATION” (NEUVONEN, Pertti J., priority 1988, dated 1989)

Legend:
[1] = Pentikainen et al., European Journal of Clinical Pharmacology 1984; cited from earlier work
[2] = cross-over study of oral absorption with concomitant magnesium hydroxide; assay type: in vivo, test persons
Description: In persons having a poor absorption of fenamates the increase of peak concentrations of e.g. tolfenamic acid can be up to 10-fold through the action of magnesium hydroxide (fig. 4).
Since medicines are generally taken with water, the administration of pharmaceutical tablets in the above tests was immediately followed by 150 ml of water with magnesium hydroxide blended therein.

increase of peak concentrations through the action of magnesium hydroxide ([2]; human, in vivo)	Structure (SMILES)	absorption from alimentary canal [1]	rate of absorption ([2]; ibuprofen 400 mg (tabl. BURANA), concomitant ingestion of Mg-hydroxide)
up to 10 fold	Cc1c(Cl)cccc1Nc1ccccc1C(=O)O [tolfenamic acid]	relatively slow	–
–	CC(C)Cc1ccc(C(C)C(=O)O)cc1 (stereo not drawn) [ibuprofen]	–	accelerated significantly
